Active and inactive are the calls of the source. The rule behind the calls is not given here.
What was measured:
[1] = target: Histone deacetylase; test: Inhibition of human HDAC in HeLa nuclear extracts
[2] = system: A549; test: Antiproliferative activity against human A549 cells after 3 days; format: functional, cell-based; conditions: A549, 72 h
[3] = Dissociation constant, pKa of the compound; format: physicochemical
[4] = system: A549; test: Antiproliferative activity against human A549 cells at 1 mM after 3 days; format: functional; conditions: A549, 72 h
[5] = target: Histone deacetylase (Homo sapiens) (UniProt Q13547+O15379+Q9UBN7+Q92769+Q9UQL6+Q8WUI4+Q9BY41+Q96DB2+P56524+Q9UKV0+Q969S8); test: Inhibition of human HDAC in A549 cells assessed as increase in histone-H4 acetylation at 150 uM after 24 hrs by Western blot; format: cell-based

IC50 [1]	IC50 [2]	Activity [5]	Structure (SMILES)	pKa [3]	inhibition at 1000 µM [4]
17.5 µM			CCCC(CCC)C(=O)NCCSS(C)(=O)=O		
56.4 µM	89 µM		CCCC(CCC)C(=O)Oc1ccc(-c2cc(=S)ss2)cc1		
198 µM	154 µM		Br.CS(=O)(=O)SCCN		
9.6 µM	154 µM		CCCC(CCC)C(=O)OCCSS(C)(=O)=O		
	> 1000 µM	Active	CCCC(CCC)C(=O)O [VALPROIC ACID]		24%
102 µM	161 µM		CS(=O)(=O)SCCO		

Structure (SMILES)	IC50 [1]	IC50 [2]	Activity [5]	pKa [3]	inhibition at 1000 µM [4]
Oc1ccc(-c2cc(=S)ss2)cc1	0.45 µM	66 µM		7.86	
